Values of other authors in US6355226B1, “Topical treatment of skin disease and eye afflictions” (Advanced Viral Research Corp., priority 1997, dated 2002).

Key:
genital herpes infection = settings: topically administered ointment
[1] = system: herpes simplex 1 and 2 (HSV 1 and 2)

Nc1nc2c(ncn2COCCO)c(=O)[nH]1 [acyclovir]
effect on recurrent genital herpes disease (genital herpes infection): little if any, effect
effectiveness in primary first occurrence of genital herpes infection (genital herpes infection): seems to be effective
effectiveness against HSV 1 and 2 [1]: specifically effective
effectiveness against cytomegalovirus (cytomegalovirus (CM)): not against cytomegalovirus
